According to US3949090A, “Methods and compositions for improving feed efficiency in ruminants using dithiooxamide” (SmithKline Corporation, priority 1974, dated 1976):

Test system: animals
Assay: Toxicity statement (animals)
Conditions: when used as described

## NC(=S)C(N)=S [Dithiooxamide, dithiooxamide]
  toxicity (in words): relatively nontoxic
